One assay concerns the target T1, RIOX2 (Homo sapiens, UniProt Q8IUF8).
T1 construct: N-terminally His6-tagged RIOX2_26–465; made in house; host or cells: Escherichia coli
The experiment in a line: SPE-MS RIOX2 inhibition assay (RPL27A31–49 hydroxylation). The note with it: Table 2; His6-RIOX2 26–465 […], 5.0 μM RPL27A31–49; n = 2, mean ± SD. The class given is biochemical.

Assay [1] concerns the target T2, KDM4E (Homo sapiens, UniProt B2RXH2).
T2 construct: made in house; host or cells: Escherichia coli
T2 sequence (B2RXH2 1-506): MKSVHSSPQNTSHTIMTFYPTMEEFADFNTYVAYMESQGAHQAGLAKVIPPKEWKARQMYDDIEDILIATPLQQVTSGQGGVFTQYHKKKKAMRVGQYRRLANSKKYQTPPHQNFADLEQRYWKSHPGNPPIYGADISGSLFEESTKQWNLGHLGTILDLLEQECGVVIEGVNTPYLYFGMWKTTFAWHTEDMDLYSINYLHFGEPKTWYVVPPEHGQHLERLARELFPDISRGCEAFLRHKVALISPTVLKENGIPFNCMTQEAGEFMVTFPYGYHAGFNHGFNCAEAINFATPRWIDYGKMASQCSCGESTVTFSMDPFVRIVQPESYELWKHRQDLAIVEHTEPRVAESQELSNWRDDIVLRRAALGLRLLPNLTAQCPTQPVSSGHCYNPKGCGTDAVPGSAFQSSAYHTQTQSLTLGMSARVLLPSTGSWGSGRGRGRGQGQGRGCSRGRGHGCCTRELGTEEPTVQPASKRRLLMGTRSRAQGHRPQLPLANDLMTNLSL
The experiment in a line: SPE-MS KDM4E inhibition assay (demethylation of H3 1–15 K9me3). The assay is classed as biochemical. The note with it: Table 2, 10.0 μM H3 1–15 K9me3, n = 2, mean ± SD. The method, then: (§1) H3_1-15K9me3, histone 3 (H3), residues 1–15 with K9 of H3-bearing three methyl groups at the N^ε-position, K4 of H3 substituted by an alanine residue, and K14 of H3 by an isoleucine residue,[73] for KDM4E; and RPL27A, residues 31–49, for RIOX2 (Mina53).[44]
(§2) Cosubstrate/cofactor stock solutions [L-ascorbic acid/LAA: 50 mM in MQ-grade water; 2-oxoglutarate/2OG: 10 mM in MQ-grade water; ammonium iron(II) sulfate hexahydrate/FAS/(NH4)2Fe(SO4)2·6H2O: 400 mM in 20 mM HCl diluted to 1 mM in MQ-grade water] were freshly prepared from commercial solids (Sigma-Aldrich) on the day the assays were performed. The JMJD5,[42] PHD2,[70] FIH,[70] KDM4E,[72],[73] RIOX2,[44] and AspH[45] […] For JMJD5, PHD2, FIH, RIOX2, and AspH, substrate hydroxylation was monitored (+16 Da mass shift), while for the KDM4E substrate, demethylation was monitored (−14 Da mass shift) by SPE-MS.

The target of another assay is T3, PHD2 (Homo sapiens, UniProt Q9GZT9).
T3 construct: His6-PHD2_181–426; made in house; host or cells: Escherichia coli
The experiment in a line: SPE-MS PHD2 inhibition assay (HIF-1α CODD hydroxylation). The settings on record: Table 2; PHD2 181–426 […], 5.0 μM HIF-1α CODD; n = 2, mean ± SD. The assay is classed as biochemical. The method, then: as §1, §2

Assay [2] concerns the target T4, AspH (Homo sapiens, UniProt Q12797).
T4 construct: N-terminally His6-tagged AspH315–758; made in house; host or cells: Escherichia coli
T4 sequence (Q12797 315-758): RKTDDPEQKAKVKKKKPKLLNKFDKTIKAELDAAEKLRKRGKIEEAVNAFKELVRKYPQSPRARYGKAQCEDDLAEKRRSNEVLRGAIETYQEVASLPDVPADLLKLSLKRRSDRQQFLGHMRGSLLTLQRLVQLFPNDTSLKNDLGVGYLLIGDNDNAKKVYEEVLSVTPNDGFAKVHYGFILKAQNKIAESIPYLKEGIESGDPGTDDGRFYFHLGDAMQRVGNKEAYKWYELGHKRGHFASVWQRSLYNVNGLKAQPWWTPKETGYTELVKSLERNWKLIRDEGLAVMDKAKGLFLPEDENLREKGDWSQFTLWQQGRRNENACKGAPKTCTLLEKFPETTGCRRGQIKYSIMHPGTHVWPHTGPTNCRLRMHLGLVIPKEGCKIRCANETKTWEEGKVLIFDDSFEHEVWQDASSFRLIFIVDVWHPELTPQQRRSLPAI
The experiment in a line: SPE-MS AspH inhibition assay (hFX-CP101–119 hydroxylation). The note with it: Table 2; His6-AspH315–758 0.05 μM, 1.0 μM hFX-CP101–119; n = 2, mean ± SD. The class given is biochemical. The protocol: as §1, §2

The target of assay [3] is T4, AspH. The note with it: Supporting Table S1; reported SPE-MS value; ref SI 18; cited from earlier work.
Assay [4] has as its target T2, KDM4E. The settings on record: Supporting Table S1; reported FDH-coupled spectrophotometric assay; ref SI 17; cited from earlier work.
The next assay has as its target human JMJD5 (Homo sapiens, UniProt Q8N371). Briefly: SPE-MS JMJD5 inhibition assay (hydroxylation of RPS6 128–148 peptide). The assay is classed as biochemical. From the text: Synthetic peptides with sequences based on reported human 2OG oxygenase substrates were used in SPE-MS inhibition assays: RPS6, residues 128–148, for JMJD5;[42] HIF-α CODD, residues 558–574, for PHD2;[70] HIF-α CAD, residues 788–822, for FIH;[70] H3_1-15K9me3, histone 3 (H3), residues 1–15 with K9 of H3-bearing three methyl groups at the N^ε-position, K4 of H3 substituted by an alanine residue, and K14 of H3 by an isoleucine residue,[73] for KDM4E; and RPL27A, residues 31–49, for RIOX2 (Mina53).[44] All peptides were prepared as C-terminal amides by GL Biochem (Shanghai) Ltd. A synthetic thioether-linked cyclic peptide, hFX-CP101–119,[48] which was designed based on the reported cellular AspH substrate human coagulation factor X (hFX, residues 101–119; C101 was substituted for a D-alanine residue and C112 for a serine residue),[79] was used as AspH substrate; it was prepared with a C-terminal amide according to literature protocols.[80]
Cosubstrate/cofactor stock solutions [L-ascorbic acid/LAA: 50 mM in MQ-grade water; 2-oxoglutarate/2OG: 10 mM in MQ-grade water; ammonium iron(II) sulfate hexahydrate/FAS/(NH4)2Fe(SO4)2·6H2O: 400 mM in 20 mM HCl diluted to 1 mM in MQ-grade water] were freshly prepared from commercial solids (Sigma-Aldrich) on the day the assays were performed. The JMJD5,[42] PHD2,[70] FIH,[70] KDM4E,[72],[73] RIOX2,[44] and AspH[45] SPE-MS inhibition assays were performed as described in the cited literature, using isolated recombinant human enzymes (His6-thioredoxin-JMJD5,[42] His6-PHD2_181–426,[70] His6-FIH,[70] His6-KDM4E,[72],[73] His6-RIOX2_26–465,[87],[88] and His6-AspH315–758[48],[80]) and synthetic peptide substrates (RPS6_128–148 for JMJD5;[42] HIF-α CODD558–574 for PHD2;[70] HIF-α CAD788–822 for FIH;[70] H3_1–15K9me3 for KDM4E;[73] RPL27A31–49 for RIOX2;[44],[71] and hFX-CP101–119 for AspH;[45],[48] see above). For JMJD5, PHD2, FIH, RIOX2, and AspH, substrate hydroxylation was monitored (+16 Da mass shift), while for the KDM4E substrate, demethylation was monitored (−14 Da mass shift) by SPE-MS.

The target of assay [5] is T2, KDM4E. The note with it: cited from earlier work.
The mark [6] stands for this setting: Supporting Table S1, JMJD5 […], 2OG 2.0 μM, RPS6 128-148 2.0 μM, pH 7.5, 20 °C, n = 3, mean ± SD, read-out: IC50 JMJD5.
[7] abbreviates: supplementary CSV, read-out: IC50 JMJD5.
Where [8] appears, read: Table 2, JMJD5 […], 2OG 2.0 μM, Fe(II) 2.0 μM, LAA 100 μM, RPS6 128–148 2.0 μM, n = 3, mean ± SD, read-out: IC50 JMJD5.
Setting [9] is: isolated recombinant JMJD5, SPE-MS, approximate values, read-out: IC50 for JMJD5 inhibition.

“Also recorded” adds a separate entry of the source. Like-named read-outs stand apart in the source and are kept apart here. Where only a bound is given, the exact number is not on record here.

T3 sequence (Q9GZT9 181-426): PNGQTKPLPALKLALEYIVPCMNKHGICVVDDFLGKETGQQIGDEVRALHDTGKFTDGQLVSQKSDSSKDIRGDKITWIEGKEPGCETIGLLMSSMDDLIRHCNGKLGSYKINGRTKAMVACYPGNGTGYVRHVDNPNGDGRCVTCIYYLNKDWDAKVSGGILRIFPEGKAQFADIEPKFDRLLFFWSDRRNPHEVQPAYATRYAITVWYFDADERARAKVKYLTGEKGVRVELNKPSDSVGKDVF
human JMJD5, sequence (Q8N371 whole entry, the tested form may be a part): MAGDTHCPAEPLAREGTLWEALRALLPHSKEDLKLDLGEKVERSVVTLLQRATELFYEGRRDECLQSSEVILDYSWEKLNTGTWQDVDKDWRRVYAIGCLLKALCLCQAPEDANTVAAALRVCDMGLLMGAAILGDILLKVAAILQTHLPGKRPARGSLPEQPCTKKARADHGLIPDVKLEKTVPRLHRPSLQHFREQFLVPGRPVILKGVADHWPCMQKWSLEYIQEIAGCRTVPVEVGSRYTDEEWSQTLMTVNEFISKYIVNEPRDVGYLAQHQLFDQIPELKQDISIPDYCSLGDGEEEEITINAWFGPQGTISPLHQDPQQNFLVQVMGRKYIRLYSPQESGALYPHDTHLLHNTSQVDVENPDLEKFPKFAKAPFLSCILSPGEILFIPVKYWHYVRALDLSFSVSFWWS
T1 sequence (Q8IUF8 26-465): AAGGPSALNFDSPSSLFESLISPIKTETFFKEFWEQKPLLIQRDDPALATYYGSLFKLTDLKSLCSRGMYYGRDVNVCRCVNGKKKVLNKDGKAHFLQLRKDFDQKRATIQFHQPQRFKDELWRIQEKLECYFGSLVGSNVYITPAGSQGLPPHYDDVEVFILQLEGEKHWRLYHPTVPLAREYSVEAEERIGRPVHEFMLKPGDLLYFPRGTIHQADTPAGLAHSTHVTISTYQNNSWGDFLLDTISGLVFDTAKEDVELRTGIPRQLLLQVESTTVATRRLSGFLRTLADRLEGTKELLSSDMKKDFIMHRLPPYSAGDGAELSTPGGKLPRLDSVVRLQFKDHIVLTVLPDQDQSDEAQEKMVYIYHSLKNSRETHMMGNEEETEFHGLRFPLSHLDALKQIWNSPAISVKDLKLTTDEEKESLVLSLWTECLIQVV
Description for RIOX2: Cosubstrate/cofactor stock solutions [L-ascorbic acid/LAA: 50 mM in MQ-grade water; 2-oxoglutarate/2OG: 10 mM in MQ-grade water; ammonium iron(II) sulfate hexahydrate/FAS/(NH4)2Fe(SO4)2·6H2O: 400 mM in 20 mM HCl diluted to 1 mM in MQ-grade water] were freshly prepared from commercial solids (Sigma-Aldrich) on the day the assays were performed. […] For JMJD5, PHD2, FIH, RIOX2, and AspH, substrate hydroxylation was monitored (+16 Da mass shift), while for the KDM4E substrate, demethylation was monitored (−14 Da mass shift) by SPE-MS.

For the compound `O=C(O)c1cc(C(=O)O)c(NCC2CCCCC2)cn1` [Compound 20f], the IC50 (in general, the concentration that gives 50% inhibition) on RIOX2 is 34 ± 8.5 µM; at KDM4E [1], 3.2 ± 0.3 µM; at PHD2, above 50 µM; on AspH [2], 2.6 ± 0.6 µM.

As to `O=C(O)c1cc(C(=O)O)c(NCc2ccc(C(F)(F)F)cc2)cn1` [Compound 20g], the IC50 on KDM4E [1] is 6.2 ± 1.1 µM; against PHD2, above 50 µM; at AspH [2] it was 1.2 ± 0.1 µM.

On to `O=C(O)c1ccnc(C(=O)O)c1Nc1ccc([N+](=O)[O-])cc1` [Compound 23], for which the “IC50 AspH” value at AspH [3] was “inactive”. For the same compound, the results for the IC50 on KDM4E [4], on human JMJD5 (setting [6]) and on human JMJD5 (setting [7]) were 95 µM, above 50 µM and above 50 µM, respectively.

Consider `COc1ccccc1Nc1c(C(=O)O)ccnc1C(=O)O` [Compound 27], for which the figures for the IC50 on KDM4E [4], at human JMJD5 (setting [6]) and at human JMJD5 (setting [7]) were 19 µM, 29.6 ± 4.3 µM and 29.6 ± 4.3 µM, respectively.

For the compound `O=C(O)c1cc(C(=O)O)c(NCCCCc2ccccc2)cn1` [Compound 20d, 5-((4-phenylbutyl)amino)pyridine-2,4-dicarboxylic acid], the IC50 on KDM4E [1] is 3.6 ± 0.7 µM; on PHD2, 20.4 ± 0.8 µM; on human JMJD5 (setting [8]), 0.4 ± 0.2 µM; against AspH [2] it was 1.9 ± 0.2 µM.

Consider `O=C(O)c1cc(C(=O)O)c(NCCc2ccccc2)cn1` [Compound 20b], for which the IC50 against RIOX2 was 27.9 ± 6.7 µM; against KDM4E [1], 5.9 ± 0.6 µM; on PHD2 it was above 50 µM; on human JMJD5 (setting [8]), 0.9 ± 0.2 µM; against AspH [2] it was 1.8 ± 0.1 µM.

In the case of `CC(Nc1cnc(C(=O)O)cc1C(=O)O)c1ccccc1` (stereo not shown) [Compound 20e], the IC50 was 22.7 ± 0.4 µM against KDM4E [1]; above 50 µM against PHD2; 17.5 ± 2.5 µM at human JMJD5 (setting [8]); around 17.5 µM at human JMJD5 (setting [9]); 5.9 ± 1.9 µM against AspH [2].

As to `O=C(O)c1ccc(Nc2c(C(=O)O)ccnc2C(=O)O)cc1` [Compound 22], the “IC50 AspH” value on AspH [3] was “inactive”. For the same compound, the IC50 is 66 µM at KDM4E [4], above 50 µM at human JMJD5 (setting [6]) and above 50 µM at human JMJD5 (setting [7]).

With `O=C(O)c1ccnc(C(=O)O)c1Nc1ccccc1` [Compound 21], the IC50 was 19 µM on KDM4E [4], above 50 µM on human JMJD5 (setting [6]) and above 50 µM at human JMJD5 (setting [7]).

On to `COc1ccccc1CNc1cnc(C(=O)O)cc1C(=O)O` [Compound 20i, 5-((2-methoxybenzyl)amino)pyridine-2,4-dicarboxylic acid], for which the IC50 against RIOX2 is above 50 µM; against KDM4E [1], 11.3 ± 2.9 µM; at PHD2 it was above 50 µM; on AspH [2], 0.9 ± 0.2 µM.

Regarding `O=C(O)c1cc(C(=O)O)c(NCCCc2ccccc2)cn1` [Compound 20c], the IC50 was 27.3 ± 6.7 µM on RIOX2; 28.2 ± 4.1 µM against KDM4E [1]; above 50 µM against PHD2; 0.3 ± 0.1 µM on human JMJD5 (setting [8]); 2.8 ± 0.4 µM against AspH [2].

In the case of `COc1ccc(CNc2cnc(C(=O)O)cc2C(=O)O)cc1` [Compound 20h, 5-((4-methoxybenzyl)amino)pyridine-2,4-dicarboxylic acid], the half-maximal inhibitory concentration (IC50) against RIOX2 was 27.6 ± 7.1 µM; at KDM4E [1] it was 15.5 ± 1.9 µM; against PHD2, above 50 µM; against AspH [2], 2 ± 0.4 µM.

Turning to `O=C(O)c1cc(C(=O)O)c(C(F)(F)F)cn1` [Compound 16, 5-trifluoromethyl-2,4-PDCA], at KDM4E [5], the “KDM4E inhibition (in words)” value is “not to inhibit KDM4E”. Besides, the IC50 is above 50 µM at human JMJD5 (Table 1, JMJD5 […], 2OG 2.0 μM, Fe(II) 2.0 μM, LAA 100 μM, RPS6 128–148 2.0 μM, pH 7.5, 20 °C, n = 3, mean ± SD, read-out: IC50 JMJD5) and above 50 µM at human JMJD5 (setting [9]). The “JMJD5 inhibition (in words)” value on human JMJD5 (isolated recombinant JMJD5, SPE-MS) was “did not efficiently inhibit JMJD5; also recorded: does not inhibit JMJD5”.

On to `O=C(O)c1cc(C(=O)O)c(NCc2ccccc2)cn1` [Compound 20a, 5-(benzylamino)pyridine-2,4-dicarboxylic acid], for which the IC50 against KDM4E [1] is 3.2 ± 1.6 µM; at PHD2, above 50 µM; against AspH [2], 0.5 ± 0.2 µM.

Turning to `CSc1ccccc1Nc1c(C(=O)O)ccnc1C(=O)O` [Compound 28], the IC50 was 48 µM on KDM4E [4], 41.5 ± 2.2 µM at human JMJD5 (setting [6]) and 41.5 ± 2.2 µM on human JMJD5 (setting [7]).

In the case of `O=C(O)c1ccccc1Nc1c(C(=O)O)ccnc1C(=O)O` [Compound 24], the IC50 is 166 µM at KDM4E [4], above 50 µM at human JMJD5 (setting [6]) and above 50 µM on human JMJD5 (setting [7]).

On to `Cc1ccccc1Nc1c(C(=O)O)ccnc1C(=O)O` [Compound 26], for which the IC50 at KDM4E [4] was 41 µM; on human JMJD5 (setting [6]) it was above 50 µM; on human JMJD5 (setting [7]), above 50 µM.

The record behind these values is article PMC10424186 (Journal of Medicinal Chemistry, 2023).
